Source: US20240123015A1, “COMPOSITION FOR STRENGTHENING, DEVELOPING, DIFFERENTIATING, OR REGENERATING MUSCLE, OR PREVENTING, AMELIORATING, OR TREATING MUSCLE LOSS OR MUSCLE FATIGUE COMPRISING SCHIZONEPETA TENUIFOLIA EXTRACT AS EFFECTIVE COMPONENT” (KOREA INSTITUTE OF ORIENTAL MEDICINE, priority 2021, published 2024)

Experiments:
[1] = test system: C2C12 cells; assay: Viability recovery of muscle cells under H2O2 oxidative stress (CCK8); assay type: cell-based, mouse; conditions: H2O2 250 μM alone; compared to control group
Description: Mouse myoblast cell line (i.e., C2C12 cells) was purchased from ATCC (Manassas, VA, USA) and cultured at conditions of 37° C. and 5% CO2 in DMEM medium containing 10% fetal bovine serum. Once the cultured cells reached 80% confluency, the medium was replaced with other DMEM medium (Gibco) containing 2% horse serum, 100 units/ml of penicillin, and 100 μg/ml of streptomycin to induce cell differentiation. The cells were cultured for 5 days after replacing the medium to induce cell differentiation. The culture medium was replaced with fresh medium every 2 days during the differentiation process. To induce muscular atrophy, the cells were treated with H2O2 at a final concentration of 250 μM. Concurrently, the cells were treated with Schizonepeta tenuifolia extract obtained from Example 1 at a concentration of 100 μg/ml. After treating the cells with Schizonepeta tenuifolia extract and culturing them for 24 hours, the medium was replaced with fresh medium containing 10% CCK8 (Dojindo) solution. After incubating for 2 hours, the absorbance was measured at 450 nm to evaluate cell viability. Each sample was measured three times, and the mean value was calculated.

[2] = test system: BALB/c mice; assay: Fatigue-related factors (LDH, AST, ALT) in blood serum; assay type: in vivo, mouse; conditions: dexamethasone 25 mg/kg
Description: The extract prepared as a dry powder was dissolved in physiological saline and used for the administration. After two weeks of oral administration of the test sample, the evaluation was made by Rotarod test and also in terms of a change in fatigue-related factors in the blood.
At the end of the 1-hour time point after the oral administration of each test material for 2 weeks, the Rotarod test was carried out, and blood samples were collected immediately from the animal heart. The collected blood was centrifuged at 3,000 rpm, 4° C. for 15 minutes to separate the blood serum, which was then stored at −70° C. until further analysis. Thereafter, concentrations of lactate dehydrogenase (LDH), aspartate aminotransferase (AST), and alanine aminotransferase (ALT) in the blood serum were measured by using a biochemical analyzer (AU480 chemistry analyzer, Beckman Coulter Inc., Brea, CA, USA).

[3] = test system: BALB/c mice; assay: Rotarod test in dexamethasone-induced animal model of fatigue; assay type: in vivo, mouse; conditions: positive control 50 mg/kg, 2 weeks, 20 rpm
Description: A 6-week-old male BALB/c mice was purchased from Orient Bio Inc. (Seongnam, South Korea) and used them for the test. The test animals were acclimated for one week in a breeding environment with a temperature of 25±2° C., humidity of 50±5%, and a 12-hour light-dark cycle, while being provided with ad libitum access to a standard diet (AIN-76A diet) and water. After the acclimation period, the animals were used for the test. The animal test of the present invention was carried out after obtaining an approval of Korea Institute of Oriental Medicine Institutional Animal Care and Use Committee.
The acclimated mice were randomly assigned to different groups: the normal group (Normal), the group administered with dexamethasone group (25 mg/kg), the group administered with Schizonepeta tenuifolia extract (HG, 200 mg/kg), and the positive control group administered with oxymetholone (50 mg/kg). Each group consisted of 6 mice. […]
Mouse was orally administered for 2 weeks with each test material, and then placed on the rod of a Rotarod apparatus and rotated at a speed of 20 rpm. The time until the mouse fell off the rod was then measured. […] The mean value of the three measurements for each animal was taken as the test result value, and the mean and standard deviation were calculated for each group of the six animals.

Structure (SMILES): OO [H2O2]
- cell viability [1]: statistically significant decrease in cell viability

Structure (SMILES): C[C@@H]1C[C@H]2[C@@H]3CCC4=CC(=O)C=C[C@]4(C)[C@@]3(F)[C@@H](O)C[C@]2(C)[C@@]1(O)C(=O)CO [dexamethasone]
- LDH level in blood serum [2]: elevated levels
- ALT level in blood serum ([2]; compared to normal group): statistically significant increase
- AST level in blood serum ([2]; compared to normal group): statistically significant increase

Structure (SMILES): C[C@]12C/C(=C/O)C(=O)C[C@@H]1CC[C@@H]1[C@@H]2CC[C@@]2(C)[C@H]1CC[C@]2(C)O [oxymetholone]
- hanging time on the Rotarod [3]: statistically significant increase in the time spent hanging on the Rotarod
